biological target: T1, Human GO (Homo sapiens, UniProt Q9UJM8); test: GO enzymatic assay (coupled fluorescence/HRP assay, glycolate substrate); format: biochemical; settings: not given
T1 construct: purchased Novus Biologicals NBP1-72412
T1 sequence (Q9UJM8 1-370): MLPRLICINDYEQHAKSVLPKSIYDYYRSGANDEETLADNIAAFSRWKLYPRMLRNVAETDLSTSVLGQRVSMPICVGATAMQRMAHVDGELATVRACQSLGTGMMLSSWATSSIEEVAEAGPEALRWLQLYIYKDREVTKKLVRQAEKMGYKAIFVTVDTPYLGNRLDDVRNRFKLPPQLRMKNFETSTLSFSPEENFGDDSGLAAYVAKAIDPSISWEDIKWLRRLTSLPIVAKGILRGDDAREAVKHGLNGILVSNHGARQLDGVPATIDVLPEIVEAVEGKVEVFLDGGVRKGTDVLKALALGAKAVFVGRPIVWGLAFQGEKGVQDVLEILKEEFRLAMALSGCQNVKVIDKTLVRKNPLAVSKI
How it was run: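 Human GO incubated with glycolate substrate in 50 mM potassium phosphate, pH 7, with varying inhibitor concentrations. Activity read by coupled HRP fluorescence. IC50 taken from variable-slope sigmoidal dose-response fits of percent inhibition relative to DMSO control.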

IC50 | SMILES
< 100 nM | O=C(O)c1[nH]nnc1Oc1ccc(-c2ccc(Cl)c(Cl)c2)cc1 [Compound 165, 4-((3′,4′-dichloro-[1,1′-biphenyl]-4-yl)oxy)-1H-1,2,3-triazole-5-carboxylic acid 2,2,2-trifluoroacetate]

same assay, conditions: Table 1; read-out: Range (range of IC50 values calculated from the enzymatic assays)

SMILES | IC50
O=C(O)c1[nH]nnc1-c1ccc(OC(F)(F)F)cn1 [Compound 145, 4-(5-(trifluoromethoxy)pyridin-2-yl)-1H-1,2,3-triazole-5-carboxylic acid 2,2,2-trifluoroacetate] | 1000 to 10000 nM
O=C(O)c1[nH]nnc1C(=O)N1CCC(c2ccc(Cl)cc2)C1 (centres unmarked) [Compound 146, 4-(3-(4-chlorophenyl)pyrrolidine-1-carbonyl)-1H-1,2,3-triazole-5-carboxylic acid] | 1000 to 10000 nM
O=C(O)c1[nH]nnc1C(=O)N1Cc2ccc(Cl)cc2C1 [Compound 147, 4-(5-chloroisoindoline-2-carbonyl)-1H-1,2,3-triazole-5-carboxylic acid] | 1000 to 10000 nM
O=C(O)c1[nH]nnc1Nc1cc(Cl)cc(Cl)c1 [Compound 153, 4-((3,5-dichlorophenyl)amino)-1H-1,2,3-triazole-5-carboxylic acid] | 100 to 1000 nM
O=C(O)c1[nH]nnc1Nc1ccc(-c2ccc(OC(F)(F)F)c(Cl)c2)cc1 [Compound 155, 4-((3′-chloro-4′-(trifluoromethoxy)-[1,1′-biphenyl]-4-yl)amino)-1H-1,2,3-triazole-5-carboxylic acid] | < 100 nM
O=C(O)c1[nH]nnc1Oc1ccc(-c2ccc(OC(F)(F)F)c(Cl)c2)cc1 [Compound 156, 4-((3′-chloro-4′-(trifluoromethoxy)-[1,1′-biphenyl]-4-yl)oxy)-1H-1,2,3-triazole-5-carboxylic acid] | < 100 nM
O=C(O)c1[nH]nnc1Oc1ccc(-c2cccc(C(=O)N3CCCCC3)c2)cc1 [Compound 157, 4-((3′-(piperidine-1-carbonyl)-[1,1′-biphenyl]-4-yl)oxy)-1H-1,2,3-triazole-5-carboxylic acid 2,2,2-trifluoroacetate] | < 100 nM
O=C(O)c1[nH]nnc1COc1ccc2cc(Cl)ccc2c1 [Compound 158, 4-(((6-chloronaphthalen-2-yl)oxy)methyl)-1H-1,2,3-triazole-5-carboxylic acid 2,2,2-trifluoroacetate] | < 100 nM
O=C(O)c1[nH]nnc1Oc1ccc(-c2ccc(C(F)(F)F)cc2)cc1 [Compound 161, 4-((4′-(trifluoromethyl)-[1,1′-biphenyl]-4-yl)oxy)-1H-1,2,3-triazole-5-carboxylic acid] | < 100 nM
O=C(O)c1[nH]nnc1Oc1ccc(-c2cccc(OC3CCCC3)c2)cc1 [Compound 162, 4-((3′-(cyclopentyloxy)-[1,1′-biphenyl]-4-yl)oxy)-1H-1,2,3-triazole-5-carboxylic acid] | < 100 nM
O=C(O)c1[nH]nnc1Oc1ccc(-c2ccc(Cl)c(OC(F)(F)F)c2)cc1 [Compound 163, 4-((4′-chloro-3′-(trifluoromethoxy)-[1,1′-biphenyl]-4-yl)oxy)-1H-1,2,3-triazole-5-carboxylic acid] | < 100 nM
O=C(O)c1[nH]nnc1C(F)(F)c1ccc(Cl)c(Cl)c1 [Compound 166, 4-((3,4-dichlorophenyl)difluoromethyl)-1H-1,2,3-triazole-5-carboxylic acid] | < 100 nM

Further lines, results first:

IC50 | SMILES
< 100 nM | O=C(O)c1[nH]nnc1C(=O)N1CCc2cc(Cl)ccc21 [Compound 148, 4-(5-chloroindoline-1-carbonyl)-1H-1,2,3-triazole-5-carboxylic acid]
1000 to 10000 nM | O=C(O)c1[nH]nnc1C(=O)N1CCC(c2ccc(Cl)cc2Cl)C1 (centres unmarked) [Compound 149, 4-(3-(2,4-dichlorophenyl)pyrrolidine-1-carbonyl)-1H-1,2,3-triazole-5-carboxylic acid]
1000 to 10000 nM | O=C(O)c1[nH]nnc1C(=O)N1CCC(c2ccc(Cl)c(Cl)c2)C1 (centres unmarked) [Compound 150, 4-(3-(3,4-dichlorophenyl)pyrrolidine-1-carbonyl)-1H-1,2,3-triazole-5-carboxylic acid]
< 100 nM | O=C(O)c1[nH]nnc1SCc1ccc(Cl)c2ccccc12 [Compound 152, 4-(((4-chloronaphthalen-1-yl)methyl)thio)-1H-1,2,3-triazole-5-carboxylic acid 2,2,2-trifluoroacetate]
1000 to 10000 nM | O=C(O)c1[nH]nnc1Nc1cc(Cl)ccc1Cl [Compound 154, 4-((2,5-dichlorophenyl)amino)-1H-1,2,3-triazole-5-carboxylic acid 2,2,2-trifluoroacetate]
100 to 1000 nM | O=C(O)c1[nH]nnc1Oc1ccc(-c2cccc(CN3CCCCC3)c2)cc1 [Compound 160, 4-((3′-(piperidin-1-ylmethyl)-[1,1′-biphenyl]-4-yl)oxy)-1H-1,2,3-triazole-5-carboxylic acid 2,2,2-trifluoroacetate]
< 100 nM | O=C(O)c1[nH]nnc1Sc1ccc(-c2cccc(N3CCCCC3)c2)cc1 [Compound 164, 4-((3′-(piperidin-1-yl)-[1,1′-biphenyl]-4-yl)thio)-1H-1,2,3-triazole-5-carboxylic acid 2,2,2-trifluoroacetate]
< 100 nM | O=C(O)c1[nH]nnc1OC1CCC(F)(F)CC1 [Compound 167, 4-((4,4-difluorocyclohexyl)oxy)-1H-1,2,3-triazole-5-carboxylic acid 2,2,2-trifluoroacetate]
< 100 nM | O=C(O)c1[nH]nnc1OC1CC2CCC1C2 (centres unmarked) [Compound 168, 4-(bicyclo[2.2.1]heptan-2-yloxy)-1H-1,2,3-triazole-5-carboxylic acid]

same assay, conditions: Table 2; read-out: Range (range of IC50 values calculated from the enzymatic assays)

SMILES | IC50
O=C(O)c1[nH]nnc1SC1CCc2cc(F)c(F)cc2C1 (centres unmarked) [Compound 172, 4-((6,7-difluoro-1,2,3,4-tetrahydronaphthalen-2-yl)thio)-1H-1,2,3-triazole-5-carboxylic acid] | < 100 nM
O=C(O)c1[nH]nnc1SCc1ccc2cc(Cl)ccc2c1 [Compound 174, 4-(((6-chloronaphthalen-2-yl)methyl)thio)-1H-1,2,3-triazole-5-carboxylic acid 2,2,2-trifluoroacetate] | < 100 nM
CN1CCCc2cc(-c3ccc(Sc4nn[nH]c4C(=O)O)cc3)ccc21 [Compound 175, 4-((4-(1-methyl-1,2,3,4-tetrahydroquinolin-6-yl)phenyl)thio)-1H-1,2,3-triazole-5-carboxylic acid 2,2,2-trifluoroacetate] | < 100 nM

Results, then the compound that gave them:

IC50 | SMILES
< 100 nM | O=C(O)c1[nH]nnc1Sc1ccc(-c2ccc(N3CCCCC3)cc2)cc1 [Compound 169, 4-((4′-(piperidin-1-yl)-[1,1′-biphenyl]-4-yl)thio)-1H-1,2,3 triazole-5-carboxylic acid 2,2,2-trifluoroacetate]
< 100 nM | O=C(O)c1[nH]nnc1Sc1ccc(-c2cccc(OCC3CC3)c2)cc1 [Compound 170, 4-((3′-(cyclopropylmethoxy)-[1,1′-biphenyl]-4-yl)thio)-1H-1,2,3-triazole-5-carboxylic acid 2,2,2-trifluoroacetate]
< 100 nM | O=C(O)c1[nH]nnc1CSc1ccc2cc(Cl)ccc2c1 [Compound 171, 4-(((6-chloronaphthalen-2-yl)thio)methyl)-1H-1,2,3-triazole-5-carboxylic acid 2,2,2-trifluoroacetate]
< 100 nM | O=C(O)c1[nH]nnc1SC1Cc2cc(F)c(F)cc2C1 [Compound 173, 4-((5,6-difluoro-2,3-dihydro-1H-inden-2-yl)thio)-1H-1,2,3-triazole-5-carboxylic acid]

Source: US11384055B2 (BIOMARIN PHARMACEUTICAL INC., priority 2017, dated 2022)
